# Read-outs that look alike come from different tables or passages of the source.
# Tests used:
# [1] = tested on: KB-vin (vincristine-resistant KB subline); test: Antiproliferative SRB assay, KB-vin; assay type: cell-based, human
# [2] = tested on: KB (epidermoid carcinoma of the nasopharynx); test: Antiproliferative SRB assay, KB; assay type: cell-based, human
# Mer TK = conditions: cited from earlier work
# DU145 (prostate cancer) = test: Antiproliferative SRB assay, DU145; assay type: cell-based; conditions: Homo sapiens, DU-145, read-out: GI50 DU145
# [3] = tested on: A549 (human lung carcinoma); test: Antiproliferative SRB assay, A549; assay type: cell-based; conditions: A549, read-out: GI50 A549
# [4] = paclitaxel reference, values in nM
compound,measurement,setting,value
"N#Cc1ccc(Nc2nc(NC3CCCC3)c3ccccc3n2)cc1 [6a, 2-(4-Cyanophenyl)amino-4-(N-cyclopentyl)aminoquinazoline]",GI50 KB-vin,[1]; SRB,>31300 nM
same,GI50 KB,[2]; SRB,>31300 nM
Nc1ccc(Nc2nc(NCCCO)c3ccccc3n2)cc1 [7b],GI50 KB-vin,[1]; SRB,18700 nM
same,GI50 KB,[2]; SRB,19700 nM
"OCCCNc1nc(Nc2ccc(F)cc2)nc2ccccc12 [7c, 2-(4-Fluorophenyl)amino-4-(3-hydroxypropyl)aminoquinazoline]",GI50 KB-vin,[1]; SRB,24200 nM
same,GI50 KB,[2]; SRB,17100 nM
CC(C)n1cnc2/c(=N/c3cccc(Cl)c3)nc(NCCO)[nH]c21 [C-52],Mer inhibitory potency,Mer TK; literature Mer inhibitors,weak
CC(=O)O[C@H]1C(=O)[C@@]2(C)[C@H]([C@H](OC(=O)c3ccccc3)[C@]3(O)C[C@H](OC(=O)[C@H](O)[C@@H](NC(=O)c4ccccc4)c4ccccc4)C(C)=C1C3(C)C)[C@]1(OC(C)=O)CO[C@@H]1C[C@@H]2O [Paclitaxel],GI50 KB-vin,[1]; [4],948 nM
same,GI50 KB,[2]; [4],2.6 nM
same,GI50,DU145 (prostate cancer),0.0026 µM
same,GI50,[3],0.0049 µM
CCCCNc1ncc2c(-c3ccc(F)cc3)nn(CC3CCC(N)CC3)c2n1 (stereo not shown) [UNC569],Mer inhibitory potency,Mer TK,subnanomolar
CCCCNc1ncc(C(=O)NCc2ccc(-n3ccnc3)cc2)c(NC2CCC(O)CC2)n1 (stereo not shown) [UNC2881],Mer inhibitory potency,Mer TK,subnanomolar

# Source: publication PMC4920374 (Bioorganic & medicinal chemistry, 2016)
